Data: ChEMBL document CHEMBL3507680, “University of Dundee, Gates Library screen for HepG2 cell viability”

Assay: Human HepG2 cell viability assay in 384 well format
Assay type: toxicity, cell-based
Set-up: dose 125 nL, time 70.5 hour; concentration not given beside the values
Details: HepG2 cells, read-out: Inhibition

Compound	cytotoxicity at 70.5 h [%]
CCOCC(=O)N1CCc2c(ncnc2N2CCOCC2)C1	-3.63
COc1ccc(-n2cccn2)c(CN2CCC3(CCNCC3)C2)c1	-9.48
Cc1noc(CNC(=O)c2ccccc2-n2cc(CN)cn2)n1	-5.09
CN(Cc1cccs1)C(=O)CN1CCOC(Cn2cncn2)C1 (configuration not stated)	17.4
CC(C)c1ncncc1C(=O)N1CCN(Cc2cscn2)CC1	22.6
COC(=O)C1CCCCN1C(=O)c1ccc(N(C)C)cc1F (configuration not stated)	2.71
O=C(Cc1ccc2c(c1)CCO2)Nc1cccnc1-n1cncn1	16.3
O[C@@]1(CNCCOc2ccccc2)CCCN2CCCC[C@@H]21	28
O=C(CS(=O)(=O)Cc1cc(Cl)c2c(c1)OCO2)N1CCCCCC1	-2.51
Cc1nc2sccn2c1CNC1(c2ccccc2F)CCCC1	-8.91
Cc1ccc(=O)n(CC2(O)CCN(Cc3c(F)cccc3F)CC2)n1	0.803
Cc1cnn(CC2CCCN2C(=O)c2cc(Cl)ccc2F)c1 (configuration not stated)	28.1
Cc1ccc(S(=O)(=O)NC(=O)C2(c3ccc(F)cc3)CCC2)c(C)c1	26.9
c1cncc(OCCNC2Cc3ccccc3C2)c1	-14.1
O=C1NCCN1CCNc1cc(-c2ccccc2)nc2ccnn12	-2.75
Cn1nc(-c2ccccc2NC(=O)c2cncc(Br)c2)ccc1=O	15.4
O=C(CCO)N1C[C@H]2CC[C@@H]1CN(C1Cc3ccccc3C1)C2	-9.88
Clc1cccc(C(CNc2ncccn2)N2CCOCC2)c1 (configuration not stated)	-5.68
COC(=O)N1CCC(Nc2ccc(Cl)c(C#N)n2)C1 (configuration not stated)	-2.14

Compound	cytotoxicity at 70.5 h [%]
CCc1cnc(C)nc1NC(C)C(=O)Nc1cc(F)ccc1C (configuration not stated)	22.4
Cn1cc(N2CCCC(Nc3ccc4c(c3)CCC(=O)N4)C2=O)cn1 (configuration not stated)	0.589
NC(=O)c1cnn2c1NCC(CNCC1(c3ccccc3)CCCC1)C2 (configuration not stated)	0.136
CCN1CC2(CC1=O)CN(C(=O)NC(C)C)CCN(C(=O)C(C)C)C2 (configuration not stated)	-3.19
OCCN1CCN(CC(O)c2cc(Cl)ccc2Cl)CC1 (configuration not stated)	-3.64
O=C(c1ccccn1)N1CCC(Oc2cccnc2)CC1	-8.37
Cc1noc(C)c1CN(C)Cc1csc(-c2ccccc2F)n1	-3.72
CCC(CC)CNCC1(S(C)(=O)=O)CCOCC1	-3.95
CN(C)C[C@]12COC[C@H]1CN(C(=O)CCc1ccccc1)C2	-11.8
CCOC(C)c1nc(CN2CCNCC2)cs1 (configuration not stated)	10.9
COCCCN1CCC(C(=O)c2cc(F)ccc2F)CC1	-0.37
CCc1nc2c(c(NC3CC3)n1)CCN(C(=O)Cc1nonc1C)CC2	-8.76
CCC(C)NC(=O)CS(=O)(=O)Cc1cc(C)ccc1C (configuration not stated)	-11.2
Cn1cnnc1SCC(=O)NC1CC(=O)N(CCc2ccccc2)C1 (configuration not stated)	-8.79
Cc1nnn2c1COCC(CNCc1nccs1)C2 (configuration not stated)	-10.3
CCN(C)c1ncnc2c1CCN(C(=O)c1ccoc1C)CC2	-10.9
CCC[C@H]1CN(C2CCOCC2)C[C@@H]1NC(=O)CCCn1ccnc1	-2.79
CCc1cccc(OCCN(C)C(=O)c2ccccc2NCC(=O)O)c1	-13.6
Cn1cnnc1SCCCNC(=O)Nc1ncccn1	-2.46

Compound	cytotoxicity at 70.5 h [%]
Cc1cccc(-n2nnnc2C2(NCc3ccco3)CCCCC2)c1	-3.38
O=C(c1ccc(-c2cc[nH]n2)cc1)N1CC[C@H](CO)[C@H](O)C1	0.543
Cc1ccc(C(=O)NC(C)CN2CCCC2=O)c(=O)[nH]1 (configuration not stated)	-5.25
Cn1cnc(S(=O)(=O)Nc2cc(C(N)=O)ccc2Cl)c1	-8.58
CCN(Cc1cccs1)C(=O)c1ccc(=O)n(C)c1	1.17
COCCc1noc(CN(C)C2CCCN(c3ccc(C)nn3)C2)n1 (configuration not stated)	24.4
Cc1ccccc1N1CCCN(C(=O)c2cn(C)c3ccccc23)CC1	-8.98
COc1c(CC2CC(CO)=NO2)c(Br)c2c(c1OC)OCO2 (configuration not stated)	-0.342
CC(C)c1nn(C)c(N(C)C)c1CNCc1cccnc1	-1.06
CCOCc1cccc(NCc2c[nH]nc2-c2cccnc2)c1	-2.34
Cc1nn(C)c(C)c1C1COCCN1C(=O)c1ccc(Cl)o1 (configuration not stated)	10.5
COCCN1CCc2c(cnc(-c3ccccc3)c2C(=O)O)C1	-9.19
CCC1c2ccccc2CCN1C(=O)c1ccnc(C(=O)OC)c1 (configuration not stated)	-1.37
CCOC(=O)C1CCN(C(=O)c2cc(F)ccc2-n2cnnn2)CC1	3.28
CN1CCOC(c2cncc(CCC(N)=O)n2)C1 (configuration not stated)	-3.04
CC(=O)N1CCN(C(=O)C[C@@H]2C[C@@H](C(C)C)[C@H](CC#N)C=C2C)CC1	0.119
CCCS(=O)(=O)N1CCc2nc(N3CCOCC3)nc(N(C)C)c2C1	26.5
CCN1CCN(CC(O)c2ccc(Br)cc2)CC1 (configuration not stated)	-1.54
O=C(CN1CCCC(Cn2cncn2)C1)Nc1cccnc1 (configuration not stated)	0.545
